Results on two compounds are retold here after patent publication US20220313651A1, “INHIBITORS OF ZIKA VIRUS INFECTION” (priority 2019, published 2022).

Test [1] concerns nine additional ZIKV strains. Briefly: Plaque reduction inhibition assay, nine additional ZIKV strains taken together. The test is classed as cell-based. As to conditions: Zika virus, Vero C1008; range over nine additional strains, Vero E6 cells; read-out: IC50 values against all nine ZIKV strains tested. The method, then:
A plaque reduction inhibition assay was carried out to measure the inhibitory activity of Z-medicaments against infections of ZIKV and DENV. […] The compound-virus mixtures were then transferred to Vero E6 cells (10^5/well) and incubated at 37° C. for 1 h.
The identified Z-medicaments were further studied for their broad-spectrum activity against nine additional ZIKV strains, including those isolated from different hosts, namely humans, mosquitos, and rhesus macaques, at different time periods (1947-2016) in different countries, including Mexico, Panama, Columbia, Honduras, Puerto Rico, Thailand, Nigeria, and Uganda.

In another test the test system is DENV-2 human strain V594. Briefly: DENV-2 infection in Ifnar1-/- mice, viral titers by flow cytometry. As to conditions: 20 mg/kg i.p. 12 h before and 6, 24, 48 h after infection; DENV-2 V594 2×10^6 PFU; 3 dpi; vs gossypol and DMSO. The test is classed as in vivo. The source says:
FIG. 11A is a schematic diagram of experimental procedures. […] FIG. 11B depicts representative images of DENV titers in brain, kidney, heart, and sera analyzed by flow cytometry at 3 dpi. C6/36 cells with or without DENV-2 infection were used as positive and negative controls, respectively. The percentage of infected cells to the total number of cells is shown in each figure. FIG. 11C depicts the detection of DENV titers in challenged mouse tissues and sera at 3 dpi. […] The data are presented as mean±s.e.m of duplicate wells (n=2). The experiments were repeated twice with similar results.
ST087010 was evaluated for protection against DENV-2 infection in susceptible Ifnar1^−/− mice. […] Three days after infection, sera and tissues, including brain, kidney, and heart, were collected, and detected for DENV infection using a flow cytometry assay (as described below). […] DENV titers in tissues or sera were determined from ˜20 mg of tissue, or 25 μl of sera, and used for subsequent flow cytometry analysis.
A flow cytometry assay was carried out to analyze DENV-2 titers in the infected mouse tissue supernatants and sera collected above. […] Viral titers (infectious units/ml or infectious units/g) were calculated using the formula: ((% of infected cells)×(total number of cells)×(dilution factor))/(amount of inoculum added to cells). […]
A general note: Flow cytometry measures light scatter and fluorescence of single cells or particles in a stream.

The test system of test [2] is ZIKV human strain R103451. Briefly: Protection of Ifnar1-/- mice from lethal ZIKV challenge (survival, weight). As to conditions: 20 mg/kg i.p. 12 h before and 6, 24, 48 h after infection; ZIKV R103451 200 PFU/mouse; 21 days. The test is classed as in vivo. The source says: FIG. 8A is a schematic diagram of experimental procedures. […] The treated mice were infected with ZIKV human strain R103451 (200 plaque forming unit (PFU)/mouse), followed by evaluation of survival rate (FIG. 8B) or weight changes (FIG. 8C) for 21 days. The data are expressed as mean±s.e.m. of mice in each group (n=6). In a separate experiment, ST087010 or gossypol-treated mice were infected with ZIKV human strain PAN2016 (200, PFU/mouse). Five days post-infection (dpi), viral titers were detected in tissues by plaque assay (FIG. 8D), and ZIKV or caspase-3 signals were measured in eye (FIG. 8E) and testis ([…]) tissues by immunofluorescence staining. The data are expressed as mean±s.e.m. of mice in each group (n=5), and significant differences among different groups are shown as *, **, and ***. The detection limit is 25 PFU/g. ZIKV and caspase-3 (in FIG. 8E-F) were stained with anti-ZIKV and anti-active caspase-3 antibodies, respectively. Nuclei were stained with DAPI (40,6-diamidino-2-phenylindole). Representative images of immunofluorescence staining are shown. Magnification, 63×, and scale bar, 10 μm.
Adult male (3-4 or 7-8-week-old) and pregnant female (8-12-week-old, E12-14) Ifnar1^−/− mice were used in the study. […]
ST087010 was evaluated for protection against ZIKV infection in ZIKV-susceptible Ifnar1^−/− mice. […]

Molecules are shown by their SMILES.

For orientation: IC50 means the concentration that gives 50% inhibition. As to `Cc1cc2c(C(C)C)c(O)c(O)c(C=O)c2c(O)c1-c1c(C)cc2c(C(C)C)c(O)c(O)c(C=O)c2c1O` [Gossypol, gossypol], the IC50 in test [1] fell in the range of 210 to 4310 nM.

For the compound `Cc1cc2c(C(C)C)c(O)c(O)c(/C=N/n3c(=O)[nH][nH]c3=O)c2c(O)c1-c1c(C)cc2c(C(C)C)c(O)c(O)c(/C=N/n3c(=O)[nH][nH]c3=O)c2c1O` [ST087010], the “DENV-2 viral titer (number of infected cells) in brain, kidney, heart and sera” value with DENV-2 human strain V594 is “significantly reduced number of infected cells”. Also, in test [2], the “Survival (mice protected from death)” value worked out at 50% and the Weight changes result is recorded as “slight weight loss during 6-12 dpi”.
